Laboratory results as given in ChEMBL document CHEMBL1201862, “PubChem BioAssay data set” (2004).
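Method: 48-hour compound exposure of cells in 96-well plates, five concentrations, linear interpolation of endpoints. At the GI50, growth is halved.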 Activity calls are given as the source filed them. No stated cut-off is given here; in the data, active = GI50 up to about 1.1 µM and inactive = higher.

Key:
Experiment in all cases: DTP human tumour cell line panel, 48 h
[1] = test system: 786-0
[2] = test system: BT-549
[3] = test system: CAKI-1
[4] = test system: HT-29
[5] = test system: Hs-578T
[6] = test system: K562
[7] = test system: KM12
[8] = test system: LOX IMVI
[9] = test system: M14
[10] = test system: MDA-N
[11] = test system: NCI-H23
[12] = test system: OVCAR-3
[13] = test system: PC-3
[14] = test system: RPMI-8226
[15] = test system: SF-539
[16] = test system: SK-MEL-2
[17] = test system: SN12C
[18] = test system: SR
[19] = test system: U-251
[20] = test system: UACC-257

Measured: GI50

COc1ccccc1-n1nnc2c(N)nc(N)nc21
inactive: [1] > 100 µM | [2] > 100 µM | [3] > 100 µM | [4] > 100 µM | [5] > 100 µM | [6] > 100 µM | [7] > 100 µM | [8] > 100 µM | [9] > 100 µM | [10] > 100 µM | [11] > 100 µM | [12] > 100 µM | [13] > 100 µM | [14] > 100 µM | [15] > 100 µM | [16] > 100 µM | [17] > 100 µM | [18] > 100 µM | [19] > 100 µM | [20] > 100 µM

CCOC(=O)N1CCN(Cc2cc(=O)n3cc(C)ccc3n2)CC1
inactive: [1] > 100 µM | [2] > 100 µM | [3] > 100 µM | [4] > 100 µM | [5] > 100 µM | [6] > 100 µM | [7] > 100 µM | [8] > 100 µM | [9] > 100 µM | [10] > 100 µM | [11] > 100 µM | [12] > 100 µM | [13] > 100 µM | [14] > 100 µM | [15] > 100 µM | [16] > 100 µM | [17] > 100 µM | [18] > 100 µM | [19] > 100 µM | [20] > 100 µM
